Data: patent publication EP4389150A1, “CONJUGATE COMPOUNDS AND THEIR USE IN CANCER TREATMENT AND DIAGNOSIS” (Technische Universität München, priority 2022, dated 2024)
Entries after “also recorded” stand apart in the source; their conditions may differ.

Assays:
[1] = system: LNCaP cells; experiment: Binding and internalization (cell uptake) of 68Ga-labelled PSMA ligands in LNCaP cells; format: cell-based
Procedure: To determine ligand internalization, LNCaP cells were seeded in a 96 V-bottom well plate at a density of 100,000 cells/well in 5% BSA (w/v)/RPMI medium (100 µL/well) and incubated for 30 min at 37 °C. Afterwards, solutions (25 µL/well) of either 5% BSA (w/v)/RPMI medium or of 2-PMPA (final concentration: 10 µM) in 5% BSA (w/v)/RPMI medium for blockade were added. Then, a solution of the ^68Ga-labeled PSMA-ligand (25 µL/well; 0.4 nM final concentration; AM = 26-30 MBq/nmol) was added to all wells, and the cells were incubated for 5, 15, 30, and 60 min, respectively, at 37 °C. Hereby, each time point was performed in triplicates and each experiment was repeated three times. The internalization process was terminated by placing the plate for 5 min on ice. The free radioligand was obtained by centrifugation of the plate at 600 g for 3 min and removal of the supernatant. Each well was then washed with ice-cold PBS and the fractions of the first two steps were combined. For removal of cell-bound PSMA-ligand, the cells were treated in a next step with ice-cold 2-PMPA-solution (10 µM in PBS; 150 µL/well; 15 min on ice), centrifuged (600 g, 3 min), and washed with ice-cold PBS (150 µL/well). The fractions were again combined. For the analysis of internalized radioligand, the fractions of a 1.0 N NaOH (150 µL/well; 10 min on ice) treatment as well as a concomitant washing step with 1.0 N NaOH (150 µL/well) were pooled. Free, surface bound, and internalized activity, respectively, was measured in a γ-counter.

[2] = system: PSMA+ (LNCaP); experiment: Cell viability (Alamar Blue), monotherapy, PSMA+ cells; format: cell-based; details: 72h
Procedure: (§1) Black, clear-bottom 96 well culture plates were coated with poly-L-lysine. Afterwards, the plates were washed with PBS (1 × 100 µL), cells were seeded (2000 cells/well for PC3, 10000 cells/well for LNCaP), and cultured for 24 h (PC3) or 48 h (LNCaP) at 37 °C. The culture medium was removed, and new culture medium containing 10 mM GSH-OEt was added and incubated for 1 h at 37 °C. After removal of the GSH-OEt medium, new culture medium containing the PSMA-Ruc conjugates was added. After 72 h of incubation at 37 °C, cells were treated with Alamar Blue for visualization of cell viability. […] Each data points represents one biological replicate.

[3] = Lipophilicity, n-octanol/PBS distribution coefficient; format: physicochemical; details: pH 7.4
Procedure: Lipophilicity of the conjugates was determine after radiolabeling with ^68Ga. The PSMA ligand (0.80 MBq) was dissolved in PBS (500 µL/pH 7.4) in a reaction vial (1.5 mL; n = 10). Afterwards, n-octanol was added (500 µL) and the mixture was rigorously vortexed for 3 min. Subsequent centrifugation (Biofuge 15, Heraus Sepatech, Osterode, Germany) at 13,000 rpm for 5 min led to a phase separation. After measuring 100 µL of each phase in a γ-counter, the distribution coefficient (logD(O/PBS)) was calculated with Microsoft Excel.

[4] = molecular target: T1, PSMA (Homo sapiens, UniProt Q04609); experiment: IC50 determination by competition with [68Ga]-PSMA-617 on LNCaP cells; format: binding; details: [68Ga]-PSMA-617 0.4 nM, 60 min on ice, natGa-labelled ligands
T1 construct: endogenous in cells; host or cells: LNCaP cells
Procedure: In the meantime, dilution series of the compounds were prepared in 1% BSA (w/v)/HBSS in a separate 96 U-bottom deep well plate ranging from 12 µM to 153.6 pM in 1:5 dilution steps. Next, solutions (25 µL/well) of either 1% BSA (w/v)/HBSS (control) or of the respective dilution series were transferred to the LNCaP cells containing plate. Hereby, each concentration was pipetted in triplicates and each experiment was repeated three times. Subsequently, [^68Ga]-PSMA-617 (25 µL/well; 0.4 nM final concentration; AM = 26-30 MBq/nmol) in 1% BSA (w/v)/HBSS was added to all wells and the plate was incubated for 60 min on ice. Afterwards, the experiment was terminated by centrifugation at 600 g for 3 min and removal of the supernatant. The cells were then washed with ice-cold HBSS (150 µL/well), centrifuged (600 g, 3 min), and the supernatant as well as the washing fraction were combined, representing the amount of free, unbound radioligand. Bound radioligand was obtained by lysis of the cells with 1.0 N NaOH (150 µL/well; 10 min on ice). Afterwards, the plate was washed a second time with 1.0 N NaOH (150 µL/well). Hereby, the washing step was combined with the NaOH fraction. The quantification of bound and free radioligand was finally accomplished via measuring the samples in a γ-counter.

[5] = Serum stability; format: in vitro ADME; details: 37 °C
Procedure: For serum stability analysis, 13.5 µL human serum were mixed with 1.5 µL of an aqueous solution of the test compound (200 µM final concentration) and incubated at 37 °C for 0.5, 1, 2, and 24 h, respectively. Afterwards, 25.0 µL MeCN were added, the suspension was centrifuged (14,000 rpm, 30 min, 4 °C), the supernatant was recovered, and finally analyzed by HPLC-ESI-MS using a linear elution gradient from 10 to 95% (v/v) MeCN/0.1% (v/v) TFA in water/0.1% (v/v) TFA for 15 min.

[6] = system: PC3-PIP cells / PC3-flu cells; experiment: Fluorescence microscopy of Ruc delivery in PSMA+ and PSMA- cells; format: cell-based; details: PSMA+ PC3-PIP versus PSMA- PC3-flu cells (Figure 4A)
Procedure: For microscopic analysis, black clear-bottom 96 well cell culture plates with cover-glass bottom (µ plate 96 well black; ibidi) were coated with poly-L-lysine (0.01% (w/v) in sterile water). Cells were seeded at a density of 20-40,000 cells/well and cultured for 24 h at 37 °C. Subsequently, the PSMA ligands (1 µM; 100 µL/well) were directly added with or without blocking and ligand treatment was accomplished for 5, 60 or 180 min at 37 °C, while in case of GSH preincubation, GSH-OEt (10 mM; 100 µL/well) was applied for 1 h at 37 °C prior to ligand treatment. For the latter case, the PSMA ligands (1 µM, 100 µL/well) were added after removal of the GSH containing medium and the incubation time was 60 min at 37 °C. Afterwards, cells were washed with PBS (2×) and fixed with 4% (w/v) PFA in PBS for 8 min at RT (pH 7.4, 100 µL/well). CellMask™ Green Plasma Membrane Stain was used to stain the cell membrane, whereas for cell nuclei DRAQ5™ was used. Before imaging, cells were washed with PBS (3×) and mounted in PBS (150 µL/well). Finally, cells were imaged using an EVOS M7000 microscope (Thermo Fisher Scientific).

[7] = system: PSMA- (PC3); experiment: Cell viability (Alamar Blue), monotherapy, PSMA- cells; format: cell-based; details: PC3, 20 µM, 72h, pretreated with 10 mM GSH; read-out: cell viability compared to untreated cells
Procedure: as §1

[8] = system: mCRPC; details: TRITON2 trial, Abida et al., 2020; cited from earlier work
[9] = Wilson et al. 2019; cited from earlier work
[10] = system: late stage mCRPC; details: late stage mCRPC patients, versus 11.3 months with standard therapy; Sartor et al., 2021; cited from earlier work

T1 sequence (Q04609 whole entry): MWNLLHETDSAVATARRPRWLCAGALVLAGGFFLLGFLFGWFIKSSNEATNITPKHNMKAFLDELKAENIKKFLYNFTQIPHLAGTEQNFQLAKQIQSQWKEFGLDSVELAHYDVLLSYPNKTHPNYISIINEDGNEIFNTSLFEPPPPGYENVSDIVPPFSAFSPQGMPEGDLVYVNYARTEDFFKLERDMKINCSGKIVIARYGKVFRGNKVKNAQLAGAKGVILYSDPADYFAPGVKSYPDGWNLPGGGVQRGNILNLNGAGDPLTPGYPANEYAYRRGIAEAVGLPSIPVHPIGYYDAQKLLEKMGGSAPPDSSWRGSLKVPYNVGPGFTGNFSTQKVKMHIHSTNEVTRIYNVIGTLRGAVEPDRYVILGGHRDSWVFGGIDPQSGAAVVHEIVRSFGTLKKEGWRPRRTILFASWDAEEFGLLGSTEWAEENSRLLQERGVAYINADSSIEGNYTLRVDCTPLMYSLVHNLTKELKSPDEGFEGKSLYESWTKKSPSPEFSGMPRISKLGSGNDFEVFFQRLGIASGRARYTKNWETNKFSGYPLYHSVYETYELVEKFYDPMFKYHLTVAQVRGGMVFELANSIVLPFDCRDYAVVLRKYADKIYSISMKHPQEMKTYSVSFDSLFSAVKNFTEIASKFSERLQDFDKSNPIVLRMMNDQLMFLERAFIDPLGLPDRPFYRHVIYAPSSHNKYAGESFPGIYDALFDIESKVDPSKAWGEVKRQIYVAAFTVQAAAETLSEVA

SMILES: CN(Cc1ccc(-c2[nH]c3cc(F)cc4c3c2CCNC4=O)cc1)C(=O)CCCCCCC(=O)NCCCC[C@@H](NC(=O)CCC(C(=O)O)N1CCN(CC(=O)O)CCN(CC(=O)O)CCN(CC(=O)O)CC1)C(=O)N[C@H](CC(=O)O)C(=O)NCCC(=O)NC[C@H]1CC[C@H](C(=O)N[C@@H](Cc2ccc3ccccc3c2)C(=O)NCCCC[C@H](NC(=O)N[C@@H](CCC(=O)O)C(=O)O)C(=O)O)CC1 (stereo partly drawn) [Conjugate 13, DOTAGA-n-Lys(Ruc-Sub)-n-Asp-β-Ala-TXA-L-Nal-KuE]
- % bound of total applied dose [1]: 10.8 ± 2.07%
- cytotoxic effects ([2]; 20 µM): did not show cytotoxic effects
- logD [3]: -2.58 ± 0.05
- IC50 [4]: 0.67 ± 0.09 nM
- stable (intact) after incubation in human serum ([5]; 2 hours): 94%
- intact after incubation in human serum ([5]; 24 hours): 89%

SMILES: CNCc1ccc(-c2[nH]c3cc(F)cc4c3c2CCNC4=O)cc1 [Ruc, Rucaparib]
- localization of Ruc fluorescence [6]: localized in the cell nucleus of PSMA-expressing and non-expressing cells non-selectively; also recorded: non-selective uptake in PSMA+ and PSMA- cells
- viability at 20 µM ([2]; Homo sapiens, pretreated with 10 mM GSH, read-out: cell viability compared to untreated cells): 30 to 50%
- viability at 20 µM [7]: 30 to 50%
- patients with a partial response [8]: 30-40%
- patients with an objective response [8]: 44%

SMILES: O=C(c1cc(Cc2n[nH]c(=O)c3ccccc23)ccc1[18F])N1CCN(C(=O)C2CC2)CC1 [^18F-Olaparib]
- typical biodistribution of PARPi [9]: low tumor uptake and high gut uptake

SMILES: O=C([O-])CN1CCN(CC(=O)[O-])CCN(CC(=O)NCC2CCC(C(=O)N[C@@H](Cc3ccc4ccccc4c3)C(=O)NCCCC[C@H](NC(=O)N[C@@H](CCC(=O)O)C(=O)O)C(=O)O)CC2)CCN(CC(=O)[O-])CC1.[177Lu+3] (stereo partly shown) [^177Lu-PSMA-617]
- median overall survival [10]: 15.3 months
